Laboratory results taken from PubChem BioAssay (NCI).
Values joined by “and” are separate entries in the source; they are usually repeats but may differ in a detail not shown here. Identical values can stand only once.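 1) Cells in 96-well plates. 2) Compound, 48 h, 5 concentrations. 3) Linear interpolation between surrounding doses. 4) Unreached endpoint = highest concentration. The concentration for 50% growth inhibition is given as GI50. TGI: concentration producing complete growth inhibition.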

Columns and labels:
Assay in all cases: growth of human tumour cells (NCI), 48 h
[1] = system: HCT-15 colon
[2] = system: HOP-92 NSCLC
[3] = system: IGROV1 ovarian
[4] = system: K-562 leukemia
[5] = system: MCF7 breast
[6] = system: MDA-MB-435
[7] = system: OVCAR-3 ovarian
[8] = system: RXF 393 renal
[9] = system: SK-OV-3 ovarian
[10] = system: SN12C renal
[11] = system: SW-620 colon
[12] = system: T-47D breast
[13] = system: TK-10 renal
[14] = system: UO-31 renal
[15] = system: COLO 205 colon

| Structure (SMILES) | TGI [1] | TGI [2] | TGI [3] | TGI [4] | TGI [5] | TGI [6] | TGI [7] | TGI [8] | TGI [9] | TGI [10] | TGI [11] | TGI [12] | TGI [13] | TGI [14] | TGI [15] | GI50 [15] | GI50 [3] | GI50 [6] | GI50 [7] |
| --- | --- | --- | --- | --- | --- | --- | --- | --- | --- | --- | --- | --- | --- | --- | --- | --- | --- | --- | --- |
| O=C(Cc1nc2ccc(C(=O)c3ccccc3)cc2[nH]c1=O)C(=O)Nc1ccc(Br)cc1 | > 100 µM | > 100 µM | > 100 µM | > 100 µM | > 100 µM | > 100 µM | > 100 µM | > 100 µM | > 100 µM | > 100 µM | > 100 µM | > 100 µM | > 100 µM | > 100 µM |  |  |  |  |  |
| c1cc2nnc1SCCSCCSc1ccc(nn1)SCCSCCS2 | > 100 µM | > 100 µM | > 100 µM | > 100 µM | > 100 µM | > 100 µM | > 100 µM | > 100 µM | > 100 µM | > 100 µM | > 100 µM | > 100 µM | > 100 µM | > 100 µM | > 100 µM |  |  |  |  |
| CC(=O)C(CN1CCCCC1)C(c1ccccc1)c1c(O)c2ccccc2oc1=O (configuration not stated) | > 100 µM | > 100 µM | > 100 µM | > 100 µM | > 100 µM | > 100 µM | > 100 µM | > 100 µM | > 100 µM | > 100 µM | > 100 µM | > 100 µM | > 100 µM | > 100 µM | > 100 µM |  |  |  |  |
| Cc1cc2c(c(C(=O)NCCC(=O)O)c1)Oc1c(cc(C)cc1C(=O)NCCC(=O)O)S2 | > 100 µM | > 100 µM | > 100 µM | > 100 µM | > 100 µM | > 100 µM | > 100 µM | > 100 µM | > 100 µM | > 100 µM | > 100 µM | > 100 µM | > 100 µM |  | > 100 µM |  |  |  |  |
| C[C@]12OC[C@H](c3ccccc3)N1C(=O)C1[C@H]2CC12SCCS2 (some centres not stated) | > 100 µM | > 100 µM | > 100 µM | > 100 µM | > 100 µM | > 100 µM | > 100 µM | > 100 µM | > 100 µM | > 100 µM | > 100 µM | > 100 µM | > 100 µM | > 100 µM | > 100 µM |  |  |  |  |
| Cc1ccc(-c2cc(N)n(-c3nc4c([nH]3)c(=O)n(C)c(=O)n4C)n2)cc1 | 18.6 µM | 32.2 µM | 18.3 µM | > 100 µM | > 100 µM | > 100 µM | 18.9 µM | 81.1 µM | 16.1 µM | 27.2 µM |  | 23.6 µM | 26.4 µM | 73.1 µM | 21.8 µM |  |  |  |  |
| COc1cc(COC(=O)N[C@H](C(=O)O)C(C)(C)C)c([N+](=O)[O-])cc1OC | > 100 µM | > 100 µM | > 100 µM | > 100 µM | > 100 µM | > 100 µM | > 100 µM | > 100 µM | > 100 µM | > 100 µM | > 100 µM | > 100 µM | > 100 µM | > 100 µM | > 100 µM |  |  |  |  |
| CC(C)=CCN1CC(C)C(=O)Nc2cc(Cl)ccc21 (configuration not stated) | 80.6 µM | 29 µM | 81.9 µM | > 100 µM | 44.6 µM | 52.1 µM | 32.9 µM | > 100 µM | 84.4 µM | 33 µM | 67.9 µM | > 100 µM | 63.8 µM | > 100 µM | 41.9 µM |  |  |  |  |
| CCOC(=O)CCC(NC(=O)c1ccc(OCc2nc3cc(C(F)(F)F)ccc3nc2-c2ccccc2)cc1)C(=O)OCC (configuration not stated) | > 100 µM | > 100 µM | > 100 µM | > 100 µM | 19.4 µM | > 100 µM | > 100 µM | > 100 µM | > 100 µM | > 100 µM | > 100 µM | > 100 µM |  | > 100 µM | 32.3 µM |  |  |  |  |
| c1cc(-c2cnc(-c3ccc4c(c3)CCCO4)o2)ccn1 | 31.6 µM | 49.4 µM | 36.5 µM | 22.8 µM | 28.7 µM | 28.3 µM | 33.5 µM | 43.7 µM | 57.3 µM | 46.4 µM |  | 47.2 µM | 42.1 µM | 25.3 µM | 33.1 µM |  |  |  |  |
| COc1ccc(Nc2c(C#N)c3n(c4ccccc24)c2ccccc2[n+]3C)cc1OC | 6.5 µM | > 34.2 µM | 17.8 µM | > 20 µM | 21.7 µM | 14.8 µM | 11 µM | 9.46 µM | 23.3 µM |  | 15.7 µM | > 36.9 µM | 12.4 µM | 7.23 µM | 12 µM |  |  |  |  |
| CCN(CC)CCn1c2cc3c(cc2c(=O)c2cccnc21)OCCO3 | > 10 µM | > 10 µM | > 10 µM |  | > 10 µM | > 10 µM | > 10 µM | > 10 µM | > 10 µM | > 10 µM | > 10 µM | > 10 µM | > 10 µM |  | > 10 µM |  |  |  |  |
| c1sc(NC2=NCCO2)c2c1CCCC2 | > 100 µM | > 100 µM | > 100 µM | > 100 µM | > 100 µM | > 100 µM | > 100 µM | > 100 µM | > 100 µM |  | > 100 µM | > 100 µM | > 100 µM | > 100 µM | > 100 µM |  |  |  |  |
| COc1ccc(-c2c(C#N)c(S)n(C3OC(COC(C)=O)C(OC(C)=O)C(OC(C)=O)C3OC(C)=O)c(=O)c2C#N)cc1 (configuration not stated) | > 100 µM | 67 µM and 53.5 µM | > 100 µM |  | > 100 µM | > 100 µM and 50.6 µM | > 100 µM and 61.6 µM | 71.7 µM and 73 µM | 75.8 µM and > 100 µM | > 100 µM | > 100 µM | > 100 µM and 52.5 µM | > 100 µM and 92.2 µM | > 100 µM and 70.1 µM | > 100 µM | > 100 µM and 40.7 µM | > 100 µM and 49.7 µM | 56.9 µM and 21.3 µM | > 100 µM and 23.8 µM |
| CCN(CC)CCOC(c1cc(OC)ccc1OC)c1ccc2n1-c1ccccc1OC2 (configuration not stated) | 23.6 µM | 9.37 µM | 19.7 µM | 23.5 µM | 30.2 µM | 22.2 µM | 31 µM | 21.4 µM |  | 7.69 µM | 21.1 µM | 51.3 µM | 25.4 µM | 23 µM | 17.9 µM |  |  |  |  |
| CCOC(=O)c1cc(=C2\CCN(CC(C)CC)C2=S)/c(=C(/O)CC)[nH]1 (configuration not stated) | 25.8 µM | 39.6 µM | 37.1 µM | 37.8 µM | 61 µM | 29.6 µM |  | 44.9 µM | 48.4 µM | 39.2 µM | 25.9 µM | 30.9 µM | 28.6 µM | 35.4 µM | 24.1 µM |  |  |  |  |
| Cc1ccc(S(=O)(=O)N2CCN3C(=O)c4ccccc4C32c2ccc(F)cc2)cc1 (configuration not stated) | > 100 µM |  | > 100 µM | > 100 µM | > 100 µM | > 100 µM | > 100 µM | > 100 µM | > 100 µM | > 100 µM | > 100 µM | > 100 µM | > 100 µM | > 100 µM | > 100 µM |  |  |  |  |
| O=C1CC2C=CC(O)C(C1)C2 (configuration not stated) | > 100 µM |  | > 100 µM | > 100 µM | > 100 µM | > 100 µM | > 100 µM | 12.2 µM | > 100 µM | > 100 µM | > 100 µM | > 100 µM | > 100 µM | > 100 µM | > 100 µM |  |  |  |  |
| [N-]=[N+]=Nc1c(Cl)c(=O)n(-c2ccccc2)c2ccccc12 | 43.7 µM | 38.3 µM | 30.5 µM | 49 µM | 38.7 µM | 35 µM | 39 µM | 30.1 µM | > 100 µM | 51.2 µM | 31 µM | 28.9 µM |  | 52.6 µM | 47.1 µM |  |  |  |  |
| CO[C@@H](C(=O)OC1C=CC2(CC1)C(=O)N(C)c1ccccc12)c1ccccc1 (some centres not stated) | > 100 µM | > 100 µM | > 100 µM | > 100 µM | > 100 µM | > 100 µM | > 100 µM |  | > 100 µM | > 100 µM | > 100 µM | > 100 µM | > 100 µM | > 100 µM | > 100 µM |  |  |  |  |
| O=C1CC(C(O)CO)CC(=O)N1 (configuration not stated) | > 100 µM | > 100 µM | > 100 µM | > 100 µM | > 100 µM | > 100 µM | > 100 µM |  |  | > 100 µM | > 100 µM | > 100 µM | > 100 µM | > 100 µM |  |  |  |  |  |
| O=C(/C(=C(/Br)I)c1ccccc1)c1ccccc1 | 79.3 µM | 35.6 µM | > 100 µM | 39.3 µM | 94.4 µM | 82.6 µM | 42 µM | 31.6 µM | > 100 µM | 49.9 µM |  | 59.8 µM | 69.1 µM | 41.3 µM | 36.5 µM |  |  |  |  |
| O=c1[nH]cnc2c(C3OC(CO)C(O)C3O)c[nH]c12 (configuration not stated) |  | > 100 µM | > 100 µM | > 100 µM | > 100 µM | > 100 µM | > 100 µM | > 100 µM | > 100 µM | > 100 µM | > 100 µM | > 100 µM | > 100 µM | > 100 µM | > 100 µM |  |  |  |  |
| CCOC(=O)c1c(NC(=O)c2ccccc2)sc2c1CCCC2 | > 100 µM |  | > 100 µM | > 100 µM | > 100 µM | > 100 µM | > 100 µM | > 100 µM | > 100 µM | > 100 µM | > 100 µM | > 100 µM | > 100 µM | > 100 µM | > 100 µM |  |  |  |  |
